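Dose response: 5 concentrations. Exposure: 48 h. Format: 96-well plates. Endpoint: linear interpolation; highest concentration if not reached. Abbreviation: GI50, concentration required for 50% inhibition of growth.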 The source made the active and inactive calls. Rule as the data show it: active = GI50 up to about 1.1 µM and inactive = higher.
How the values were obtained:
Assay in all cases: growth of human tumour cells (NCI), 48 h
[1] = tested on: 786-0
[2] = tested on: A498
[3] = tested on: A549
[4] = tested on: ACHN
[5] = tested on: CCRF-CEM
[6] = tested on: COLO 205
[7] = tested on: DLD-1
[8] = tested on: DMS-273
[9] = tested on: EKVX
[10] = tested on: HCC 2998
[11] = tested on: HCT-15
[12] = tested on: HL-60
[13] = tested on: HOP-62
[14] = tested on: HT-29
[15] = tested on: IGROV-1
[16] = tested on: K562
[17] = tested on: LOX IMVI
[18] = tested on: LXFL 529
[19] = tested on: M19-MEL
[20] = tested on: MOLT-4
[21] = tested on: Malme-3M
[22] = tested on: NCI-H23
[23] = tested on: NCI-H460
[24] = tested on: OVCAR-4
[25] = tested on: RPMI-8226
[26] = tested on: RXF 631
[27] = tested on: SF-539
[28] = tested on: SK-MEL-28
[29] = tested on: SK-MEL-2
[30] = tested on: SN12C
[31] = tested on: SNB-19
[32] = tested on: SNB-75
[33] = tested on: SR
[34] = tested on: SW-620
[35] = tested on: TK-10
[36] = tested on: U-251
[37] = tested on: UACC-257
[38] = tested on: UACC-62
[39] = tested on: UO-31
[40] = tested on: XF498
[41] = tested on: CAKI-1
[42] = tested on: DMS-114
[43] = tested on: HCT-116
[44] = tested on: HOP-18
[45] = tested on: HOP-92
[46] = tested on: KM-20L2
[47] = tested on: KM12
[48] = tested on: M14
[49] = tested on: NCI-H226
[50] = tested on: NCI-H522
[51] = tested on: OVCAR-3
[52] = tested on: OVCAR-5
[53] = tested on: OVCAR-8
[54] = tested on: RXF 393
[55] = tested on: SF-268
[56] = tested on: SF-295
[57] = tested on: SK-OV-3
[58] = tested on: SNB-78

Q: What does the source list for `Oc1cc(-c2ccco2)nc2cc3c(cc12)OCO3`?
A: GI50 [1]: 26.5 µM (inactive); GI50 [2]: 35.6 µM (inactive); GI50 [3]: 52.8 µM (inactive); GI50 [4]: 91 µM (inactive); GI50 [5]: 38.4 µM (inactive); GI50 [6]: 17.6 µM (inactive); GI50 [7]: 39 µM (inactive); GI50 [8]: 20 µM (inactive); GI50 [9]: > 100 µM (inactive); GI50 [10]: > 100 µM (inactive); GI50 [11]: 38.3 µM; GI50 [12]: 27.7 µM (inactive); GI50 [13]: 10.9 µM (inactive); GI50 [14]: 43.3 µM (inactive); GI50 [15]: 29.6 µM (inactive); GI50 [16]: 6.61 µM (inactive); GI50 [17]: 50.6 µM (inactive); GI50 [18]: 58.9 µM (inactive); GI50 [19]: 44.9 µM (inactive); GI50 [20]: 33.7 µM (inactive); GI50 [21]: 42.4 µM (inactive); GI50 [22]: 80.9 µM (inactive); GI50 [23]: 34.3 µM (inactive); GI50 [24]: 34.1 µM (inactive); GI50 [25]: 40.1 µM (inactive); GI50 [26]: 52.2 µM (inactive); GI50 [27]: 25.7 µM (inactive); GI50 [28]: > 100 µM (inactive); GI50 [29]: 57.8 µM (inactive); GI50 [30]: 55.5 µM (inactive); GI50 [31]: 27.1 µM (inactive); GI50 [32]: 12.5 µM (inactive); GI50 [33]: 54.3 µM (inactive); GI50 [34]: 25.9 µM (inactive); GI50 [35]: 72.6 µM (inactive); GI50 [36]: > 100 µM (inactive); GI50 [37]: 60 µM (inactive); GI50 [38]: 27.9 µM (inactive); GI50 [39]: 46.2 µM (inactive); GI50 [40]: 39.8 µM (inactive)

Q: With `O=C1CCCC/C(=C/c2ccccc2)N1` as the molecule, how does the GI50 [1] read?
A: > 100 µM (inactive)

Q: And the GI50 [2]?
A: > 100 µM (inactive)

Q: And the GI50 [3]?
A: > 100 µM (inactive)

Q: And the GI50 [4]?
A: > 100 µM (inactive)

Q: And the GI50 [41]?
A: > 100 µM (inactive)

Q: What about the GI50 [5] of the same molecule?
A: > 100 µM (inactive)

Q: And the GI50 [6]?
A: > 100 µM (inactive)

Q: And the GI50 [7]?
A: > 100 µM (inactive)

Q: And the GI50 [42]?
A: 50.4 µM (inactive)

Q: What about the GI50 [8] of the same molecule?
A: > 100 µM (inactive)

Q: What about the GI50 [9] of the same molecule?
A: > 100 µM (inactive)

Q: And the GI50 [10]?
A: > 100 µM (inactive)

Q: What about the GI50 [43] of the same molecule?
A: > 100 µM (inactive)

Q: What about the GI50 [11] of the same molecule?
A: > 100 µM

Q: And the GI50 [12]?
A: > 100 µM (inactive)

Q: What about the GI50 [44] of the same molecule?
A: > 100 µM (inactive)

Q: And the GI50 [13]?
A: > 100 µM (inactive)

Q: And the GI50 [45]?
A: > 100 µM (inactive)

Q: What about the GI50 [14] of the same molecule?
A: > 100 µM (inactive)

Q: And the GI50 [15]?
A: > 100 µM (inactive)

Q: What about the GI50 [16] of the same molecule?
A: > 100 µM (inactive)

Q: And the GI50 [46]?
A: > 100 µM (inactive)

Q: And the GI50 [47]?
A: > 100 µM (inactive)

Q: What about the GI50 [17] of the same molecule?
A: > 100 µM (inactive)

Q: And the GI50 [18]?
A: > 100 µM (inactive)

Q: What about the GI50 [48] of the same molecule?
A: > 100 µM (inactive)

Q: What about the GI50 [19] of the same molecule?
A: > 100 µM (inactive)

Q: And the GI50 [20]?
A: > 100 µM (inactive)

Q: What about the GI50 [21] of the same molecule?
A: > 100 µM (inactive)

Q: What about the GI50 [49] of the same molecule?
A: > 100 µM (inactive)

Q: And the GI50 [22]?
A: > 100 µM (inactive)

Q: And the GI50 [23]?
A: > 100 µM (inactive)

Q: What about the GI50 [50] of the same molecule?
A: > 100 µM (inactive)

Q: And the GI50 [51]?
A: > 100 µM (inactive)

Q: And the GI50 [24]?
A: > 100 µM (inactive)

Q: And the GI50 [52]?
A: > 100 µM (inactive)

Q: And the GI50 [53]?
A: > 100 µM (inactive)

Q: And the GI50 [25]?
A: > 100 µM (inactive)

Q: And the GI50 [54]?
A: > 100 µM (inactive)

Q: And the GI50 [55]?
A: > 100 µM (inactive)

Q: And the GI50 [56]?
A: > 100 µM (inactive)

Q: What about the GI50 [27] of the same molecule?
A: > 100 µM (inactive)

Q: What about the GI50 [28] of the same molecule?
A: > 100 µM (inactive)

Q: What about the GI50 [29] of the same molecule?
A: > 100 µM (inactive)

Q: What about the GI50 [57] of the same molecule?
A: > 100 µM (inactive)

Q: And the GI50 [30]?
A: > 100 µM (inactive)

Q: And the GI50 [32]?
A: 56.6 µM (inactive)

Q: What about the GI50 [58] of the same molecule?
A: > 100 µM (inactive)

Q: And the GI50 [33]?
A: > 100 µM (inactive)

Q: What about the GI50 [34] of the same molecule?
A: > 100 µM (inactive)

Q: What about the GI50 [35] of the same molecule?
A: > 100 µM (inactive)

Q: What about the GI50 [36] of the same molecule?
A: > 100 µM (inactive)

Q: What about the GI50 [37] of the same molecule?
A: > 100 µM (inactive)

Q: What about the GI50 [38] of the same molecule?
A: > 100 µM (inactive)

Q: And the GI50 [39]?
A: > 100 µM (inactive)

Q: And the GI50 [40]?
A: > 100 µM (inactive)

From ChEMBL document CHEMBL1201862, “PubChem BioAssay data set” (2004)
